Test results taken from US20240376052A1, “N-SUBSTITUTED INDOLE DERIVATIVES AS SEROTONERGIC AGENTS USEFUL FOR THE TREATMENT OF DISORDERS RELATED THERETO” (Mindset Pharma Inc., priority 2021, published 2024).
pIC50: −log10 of the molar value. Like-named read-outs stand apart in the source and are kept apart here.

Assays:
[1] = Liver microsomes stability, dog; conditions: for Predicted hepatic CL: Dog liver microsomes; for Remaining Percentage (%): Dog; for CLint scaled at 2 μM / half-life at 2 μM / microsomal CLint at 2 μM: dog, microsomes
[2] = Liver microsomes stability, human; conditions: for Predicted hepatic CL: Human liver microsomes; for Remaining Percentage (%): Human; for CLint scaled at 2 μM / half-life at 2 μM / microsomal CLint at 2 μM: human, microsomes
Procedure: (§1) The objective of this study was to estimate in vitro metabolic stability of representative compounds of the application in pooled human and male mouse liver microsomes. The concentrations of parent compounds in reaction systems were evaluated by LC-MS/MS for estimating the stability in pooled human and male mouse liver microsomes. The in vitro intrinsic clearances of test compounds were determined as well.
(§2) A master solution in the “Incubation Plate” containing phosphate buffer, ultra-pure H2O, MgCl2 solution and liver microsomes was made according to Table 3. The mixture was pre-warmed at 37° C. water bath for 5 minutes.
(§3) 40 μL of 10 mM NADPH solution was added to each well. The final concentration of NADPH was 1 mM. The negative control samples were prepared by replacing NADPH with 40 μL of ultra-pure H2O. Samples were prepared in duplicate. Negative controls were prepared in singlet.
(§4) The reaction was started with the addition of 4 μL of 200 μM test compounds or control compounds to each master solution to get the final concentration of 2 μM. This study was performed in duplicate.
(§5) Aliquots of 50 μL were taken from the reaction solution at 0, 15, 30, 45 and 60 minutes. The reaction solutions were stopped by the addition of 4 volumes of cold methanol with IS (100 nM alprazolam, 200 nM imipramine, 200 nM labetalol and 2 μM ketoprofen). Samples were centrifuged at 3,220 g for 40 minutes. Aliquot of 90 μL of the supernatant was mixed with 90 μL of ultra-pure H2O and then was used for LC-MS/MS analysis.
(§6) LC/MS analysis was performed for all samples from this study using a Shimadzu liquid chromatograph separation system equipped with degasser DGU-20A5R; solvent delivery unit LC-30AD; system controller SIL-30AC; column oven CTO-30A; CTC Analytics HTC PAL System. Mass spectrometric analysis was performed using an Triple Quad™ 5500 instrument.
(§7) All calculations were carried out using Microsoft Excel. Peak area ratios of test compound to internal standard (listed in the below table) were determined from extracted ion chromatograms.
(§8) All calculations were carried out using Microsoft Excel. Peak areas were determined from extracted ion chromatograms. The slope value, k, was determined by linear regression of the natural logarithm of the remaining percentage of the parent drug vs. incubation time curve.
(§9) The in vitro half-life (in vitro t1/2) was determined from the slope value:
(§10) Conversion of the in vitro t1/2(min) into the in vitro intrinsic clearance (in vitro CLint, in μL/min/mg proteins) was done using the following equation (mean of duplicate determinations): […]

human 5-HT2A receptor = human 5-HT2A receptor (Homo sapiens (Human), UniProt P28223); assay: Human 5-HT2A radioligand binding assay ([3H]-ketanserin)
[3] = Liver microsomes stability, mouse; conditions: for Predicted hepatic CL: Mouse liver microsomes; for Remaining Percentage (%): Mouse; for CLint scaled at 2 μM / half-life at 2 μM / microsomal CLint at 2 μM: male, mouse, microsomes
Procedure: as §1, §2, §3, §4, §5, §6, §7, §8, §9, §10

[4] = Liver microsomes stability, rat; conditions: for Predicted hepatic CL: Rat liver microsomes; for Remaining Percentage (%): Rat; for CLint scaled at 2 μM / half-life at 2 μM / microsomal CLint at 2 μM: rat, microsomes
Procedure: as §1, §2, §3, §4, §5, §6, §7, §8, §9, §10

## CCCCC/C=C\C/C=C\CCCCCCCC(=O)n1cc(C[C@H]2CCCN2C)c2cc(OC)ccc21 [Compound I-6, (9Z,12Z)-1-(5-Methoxy-3-(((R)-1-methylpyrrolidin-2-yl)methyl)-1H-indol-1-yl)octadeca-9,12-dien-1-one]
[1]
  Predicted hepatic CL: 22.75 mL/min/kg
  CLint scaled at 2 μM: 86.3 mL/min/kg
  half-life at 2 μM: 0.667 h
  microsomal CLint at 2 μM: 34.6 µL/min/mg
[1]; With NADPH, 0 min
  Remaining Percentage (%): 100.00%
[1]; With NADPH, 30 min
  Remaining Percentage (%): 49.51%
[1]; With NADPH, 60 min
  Remaining Percentage (%): 35.40%
[1]; Without NADPH, 0 min
  Remaining Percentage (%): 100.00%
[1]; Without NADPH, 30 min
  Remaining Percentage (%): 84.09%
[1]; Without NADPH, 60 min
  Remaining Percentage (%): 91.76%
[2]
  Predicted hepatic CL: 4.62 mL/min/kg
  CLint scaled at 2 μM: 5.94 mL/min/kg
  half-life at 2 μM: 4.88 h
  microsomal CLint at 2 μM: 4.74 µL/min/mg
[2]; With NADPH, 0 min
  Remaining Percentage (%): 100.00%
[2]; With NADPH, 30 min
  Remaining Percentage (%): 91.33%
[2]; With NADPH, 60 min
  Remaining Percentage (%): 86.76%
[2]; Without NADPH, 0 min
  Remaining Percentage (%): 100.00%
[2]; Without NADPH, 30 min
  Remaining Percentage (%): 89.58%
[2]; Without NADPH, 60 min
  Remaining Percentage (%): 83.22%
Human 5-HT2A receptor
  pIC50: > 5.70
[3]
  Predicted hepatic CL: 33.37 mL/min/kg
  CLint scaled at 2 μM: 53 mL/min/kg
  half-life at 2 μM: 1.91 h
  microsomal CLint at 2 μM: 12.1 µL/min/mg
[3]; With NADPH, 0 min
  Remaining Percentage (%): 100.00%
[3]; With NADPH, 30 min
  Remaining Percentage (%): 76.15%
[3]; With NADPH, 60 min
  Remaining Percentage (%): 69.51%
[3]; Without NADPH, 0 min
  Remaining Percentage (%): 100.00%
[3]; Without NADPH, 30 min
  Remaining Percentage (%): 81.25%
[3]; Without NADPH, 60 min
  Remaining Percentage (%): 91.07%
[4]
  Predicted hepatic CL: 14.24 mL/min/kg
  CLint scaled at 2 μM: 19.2 mL/min/kg
  half-life at 2 μM: 2.16 h
  microsomal CLint at 2 μM: 10.7 µL/min/mg
[4]; With NADPH, 0 min
  Remaining Percentage (%): 100.00%
[4]; With NADPH, 30 min
  Remaining Percentage (%): 83.04%
[4]; With NADPH, 60 min
  Remaining Percentage (%): 72.53%
[4]; Without NADPH, 0 min
  Remaining Percentage (%): 100.00%
[4]; Without NADPH, 30 min
  Remaining Percentage (%): 93.17%
[4]; Without NADPH, 60 min
  Remaining Percentage (%): 92.62%

## CCCCC/C=C\C/C=C\CCCCCCCC(=O)n1cc(C2CCN(C)C2)c2cc(OC)ccc21 (racemic) [Compound I-13, (9Z,12Z)-1-(5-Methoxy-3-(1-methylpyrrolidin-3-yl)-1H-indol-1-yl)octadeca-9,12-dien-1-one]
Human 5-HT2A receptor; [3H]-ketanserin competition, read-out: h5-HT2A IC50
  pIC50: 5.30 to 5.70

## [2H]c1c([2H])c([2H])c2c(c1[2H])c(CCN(C([2H])([2H])[2H])C([2H])([2H])[2H])c([2H])n2C(=O)CCCCCCC/C=C\C/C=C\CCCCC [Compound I-7, (9Z,12Z)-1-(3-(2-(Bis(methyl-d3)amino)ethyl)-1H-indol-1-yl-2,4,5,6,7-d5)octadeca-9,12-dien-1-one]
Human 5-HT2A receptor
  pIC50: 5.30 to 5.70

## CCCCC/C=C\C/C=C\CCCCCCCC(=O)n1cc(C[C@H]2CCCN2C)c2ccccc21 [Compound I-5, (9Z,12Z)-1-(3-(((R)-1-Methylpyrrolidin-2-yl)methyl)-1H-indol-1-yl)octadeca-9,12-dien-1-one]
[1]
  Predicted hepatic CL: 21.51 mL/min/kg
  CLint scaled at 2 μM: 70.8 mL/min/kg
  half-life at 2 μM: 0.814 h
  microsomal CLint at 2 μM: 28.4 µL/min/mg
[1]; With NADPH, 0 min
  Remaining Percentage (%): 100.00%
[1]; With NADPH, 30 min
  Remaining Percentage (%): 65.44%
[1]; With NADPH, 60 min
  Remaining Percentage (%): 42.66%
[1]; Without NADPH, 0 min
  Remaining Percentage (%): 100.00%
[1]; Without NADPH, 30 min
  Remaining Percentage (%): 87.66%
[1]; Without NADPH, 60 min
  Remaining Percentage (%): 90.58%
[2]
  Predicted hepatic CL: 6.42 mL/min/kg
  CLint scaled at 2 μM: 9.3 mL/min/kg
  half-life at 2 μM: 3.11 h
  microsomal CLint at 2 μM: 7.42 µL/min/mg
[2]; With NADPH, 0 min
  Remaining Percentage (%): 100.00%
[2]; With NADPH, 30 min
  Remaining Percentage (%): 86.52%
[2]; With NADPH, 60 min
  Remaining Percentage (%): 80.05%
[2]; Without NADPH, 0 min
  Remaining Percentage (%): 100.00%
[2]; Without NADPH, 30 min
  Remaining Percentage (%): 85.69%
[2]; Without NADPH, 60 min
  Remaining Percentage (%): 80.25%
Human 5-HT2A receptor
  pIC50: > 5.70
[3]
  Predicted hepatic CL: 41.60 mL/min/kg
  CLint scaled at 2 μM: 77.3 mL/min/kg
  half-life at 2 μM: 1.31 h
  microsomal CLint at 2 μM: 17.7 µL/min/mg
[3]; With NADPH, 0 min
  Remaining Percentage (%): 100.00%
[3]; With NADPH, 30 min
  Remaining Percentage (%): 74.79%
[3]; With NADPH, 60 min
  Remaining Percentage (%): 58.84%
[3]; Without NADPH, 0 min
  Remaining Percentage (%): 100.00%
[3]; Without NADPH, 30 min
  Remaining Percentage (%): 80.19%
[3]; Without NADPH, 60 min
  Remaining Percentage (%): 90.42%
[4]
  Predicted hepatic CL: 24.83 mL/min/kg
  CLint scaled at 2 μM: 45.1 mL/min/kg
  half-life at 2 μM: 0.917 h
  microsomal CLint at 2 μM: 25.2 µL/min/mg
[4]; With NADPH, 0 min
  Remaining Percentage (%): 100.00%
[4]; With NADPH, 30 min
  Remaining Percentage (%): 69.74%
[4]; With NADPH, 60 min
  Remaining Percentage (%): 46.98%
[4]; Without NADPH, 0 min
  Remaining Percentage (%): 100.00%
[4]; Without NADPH, 30 min
  Remaining Percentage (%): 97.35%
[4]; Without NADPH, 60 min
  Remaining Percentage (%): 95.87%

## [2H]C([2H])([2H])Oc1ccc2c(c1)c(C([2H])([2H])C([2H])([2H])N(C([2H])([2H])[2H])C([2H])([2H])[2H])cn2C(=O)CCCCCCC/C=C\C/C=C\CCCCC [Compound I-4, (9Z,12Z)-1-(3-(2-(Bis(methyl-d3)amino)ethyl-1,1,2,2-d4)-5-(methoxy-d3)-1H-indol-1-yl)octadeca-9,12-dien-1-one]
Human 5-HT2A receptor
  pIC50: > 5.70
